Assay results taken from publication PMC3913620, “Preclinical Evaluation of the Novel, Orally Bioavailable Selective Inhibitor of Nuclear Export (SINE) KPT-335 in Spontaneous Canine Cancer: Results of a Phase I Study” (PLoS ONE, 2014).
Values joined by “and” are separate entries in the source; they are usually repeats but may differ in a detail not shown here. Equal values may be shown once.

Key:
[1] = Owner-assessed quality of life questionnaire; format: in vivo, dogs
From the text: A tool to assess quality of life in dogs with cancer during treatment has been previously published. This was used to assess owner perceived changes in dogs undergoing KPT-335 treatment during both the dose escalation and dose expansion studies. An overall quality of life (QOL) score was created based on answers to the questions on the quality of life questionnaire. The scores from each question were summed resulting in an overall quality of life score which could range from 23 to 115. Trends in Quality of Life (QOL) during the study were examined using linear mixed models containing fixed effects of time and an autoregressive correlation structure for the random errors. Wald tests were used to test for a significant change in QOL with degrees of freedom calculated using the Kenward-Roger method. Measurements obtained after 90 days were not included in the analysis for the dose escalation study and measurements after 70 days were not included in the analysis of the dose expansion data due to few data points after those time points.

[2] = system: primary canine DLBCL cells; experiment: MTS cell viability assay, primary canine DLBCL samples; format: cell-based; details: Canis lupus familiaris, primary sample #1, 72 hours, read-out: IC50, DLBCL#1
Method: Cryopreserved tumor cells obtained from sterile lymph node biopsy samples from dogs with diffuse large B cell lymphoma (DLBCL) were cultured with 100 ng/mL of megaCD40L (Enzo Life Science, Plymouth Meeting, PA) as previously described, [27]. The human T-cell leukemia cell line, Jurkat, was from the American Type Culture Collection (ATCC, Manassas, VA) and cultured in RPMI1640 medium (Gibco/BRL, Grand Island, NY) containing 10% fetal bovine serum (FBS; Atlas Biologicals, Fort Collins, CO), 2-mercaptoethanol (Gibco/BRL), HEPES, L-glutamine, sodium pyruvate (Mediatech Inc., Manassas, VA), non-essential amino acids (Sigma Aldrich, St. Louis, MO), and Primocin (Invivogen, San Diego, CA). The canine DLBCL cell line CLBL1 obtained from Dr. Barbara Rütgen (University of Vienna, Austria), [29] and human DLBCL cell lines OCI-Ly3 [30], [31] and OCI-Ly10 [32] obtained from Dr. Anne Novak (Mayo Clinic Cancer Center, Rochester, MN) were cultured in complete Iscove’s Modified Dulbecco’s medium (IMDM) containing 20% FBS, L-glutamine, and Primocin. All cells were maintained at 37°C in a humidified 5% CO2 atmosphere. The following additional canine tumor cell lines were used to evaluate response to SINE compounds: C2, mast cell tumor line provided by Dr. George Caughey, UCSF, San Francisco, CA [33]; OSA16, osteosarcoma cell line, provided by Dr. Jaime Modiano, UM, Minneapolis, MN [34]; and 323610-3, malignant melanoma cell line, provided by Dr. Michael Kent, UCD, Davis, CA [35]. All cell lines were cultured in complete RPMI media containing 10% FBS, antibiotic/antimycotic, HEPES, sodium pyruvate, nonessential amino acids and Glutamax (media supplements from Gibco).
Cell viability for lymphoid lines was determined by the MTS (3-(4, 5-dimethylthiazol-2-yl)-5-(3-carboxymethoxyphenyl)-2-(4-sulfophenyl)-2H-tetrazolium) assay using CellTiter 96® AQueous One Solution Cell Proliferation Assay Kit (Promega, Madison, WI). Briefly, for lymphoid cell lines, 5×10^4 cells (or 1×10^5 primary DLBCL cells) were cultured in 100 µL of complete medium in 96-well plates in the presence of SINE compounds. After 72 hours, 20 µL of MTS solution was added to each well and cells were incubated for another 4 hours before measuring absorbance at 490 nm using a Wallac Victor 1420 Multilabel Counter (Perkin Elmer, Waltham, MA). The IC50 of SINE was calculated using Prism 6 software (GraphPad Software, Inc., La Jolla, CA).

Oral bioavailability = format: in vivo; details: normal laboratory dogs
[3] = system: dogs with spontaneous cancer (NHL, mast cell tumor, osteosarcoma); experiment: Phase I dose escalation study, tumor response; format: in vivo
Method: This study was a Phase I dose escalating, open label assessment of the safety and biologic activity of KPT-335 in client owned dogs with spontaneous malignancies. Assessment of clinical toxicities and tumor response was performed at each visit. Dogs were evaluated for hematologic and biochemical toxicities every 7 days with routine bloodwork. The initial dose of 1 mg/kg orally twice per week (Monday/Thursday or Tuesday/Friday) was based on previous data from normal laboratory dogs (data not shown) and dose escalation was set at 0.25 mg/kg increments in cohorts of 3 until dose limiting toxicity (DLT) was identified. The DLT was considered to be any grade 3 or 4 hematologic or non-hematologic toxicity based on the established VCOG-CTCAE criteria. […] Disease progression or signs and symptoms definitely related to disease were not considered adverse events (AEs). The maximum tolerated dose (MTD) was considered to be one dose below that at which DLT occurred.
(§1) Tumor assessments were completed prior to study entry, and days 7, 14, 21, and 28. For dogs that continued beyond 4 weeks, response assessments were performed every 2 weeks thereafter, or at the time of suspected tumor progression. Responses were assessed by the investigator according to pre-defined protocol criteria. The response in dogs with assessable disease was performed by clinical examination, ultrasonography, or thoracic radiography. Many lesions were not amenable for quantitative radiographic imaging, but were followed either by serial clinical examination (superficial lesions; palpable lymph nodes) or by ultrasonography (abdominal lymph nodes). Thoracic lesions were assessed by thoracic radiography.
(§2) The response in dogs with measurable disease was judged by the investigator on the basis of Response Evaluation Criteria for Peripheral Nodal Lymphoma in dogs (v1.0). A complete response (CR) was defined as disappearance of all disease on two measurements separated by a minimum period of 3 weeks. A partial response (PR) was defined as greater than 30% reduction in the sum of the longest diameter of the target lesions documented by two assessments separated by at least 3 weeks. An increase of >20% in the size of all measurable tumor areas as measured by the sum of longest diameters of the target lesions taken as reference the smallest sum since initiation of therapy, or the appearance of any new lesion(s) would qualify as progressive disease (PD). […] Dogs who had no evidence of tumor progression and who had not experienced any unacceptable toxicity were eligible for extended treatment cycles. Dose escalation from twice per week administration to three times per week administration in an individual dog was permitted if the dog was tolerating therapy.

dogs with NHL = experiment: Dose expansion study, tumor response; format: in vivo; details: 1.5 mg/kg Monday/Wednesday/Friday
Method: as §1, §2

## O=C(/C=C\n1cnc(-c2cc(C(F)(F)F)cc(C(F)(F)F)c2)n1)NNc1ccccn1 [KPT-335]
[1]; dose escalation study, p = 0.64
  overall quality of life: did not change significantly
[1]; dose expansion study, p = 0.47
  overall quality of life: did not change significantly
[2]
  IC50: 2 nM
Oral bioavailability
  oral bioavailability: excellent oral bioavailability
[3]
  clinical benefit (CB: PR or SD >4 weeks), dogs with NHL: 9/14
  clinical benefit, dogs with NHL: 64%
  duration of PR, individual dogs: 71 days and 246 days
  median TTP, responding dogs with NHL: 66 days
  median duration of treatment, dogs with NHL: 10 weeks
  range of duration of treatment, dogs with NHL: 5–35 weeks
[3]; 8 dogs with SD
  median duration of SD: 58.5 days
  range of duration of SD: 28 to 84 days
[3]; 17 dogs
  TTP range, all dogs: 14 to 246 days
  dogs with PD in the first 4 weeks of therapy: 7
  median TTP, all dogs: 35 days
[3]; SD for greater than 28 days
  stable disease (SD), number of dogs with NHL: 7
[3]; all 17 dogs
  stable disease (SD), number of dogs: 8
[3]; lowest dose level
  dose at which biologic activity was observed: 1 mg/kg
Dogs with NHL
  CB rate: 67%
  TTP range, responders: 35 to 354 days
  clinical benefit (CB), dogs: 4/6
  dogs with SD for longer than 28 days: 4
  median TTP, responders: 83 days
Dogs with NHL; 1.5 mg/kg
  duration of PR, individual dogs: 35 days and 354 days
Dogs with NHL; 6 dogs with NHL
  TTP range, all dogs: 13 to 354 days
  median TTP, all dogs: 55 days
